Test results: US20250281498A1, “FUSED AMINO PYRIMIDINE COMPOUNDS FOR TREATMENT OF SYNUCLEINOPATHIES AND TDP-43 PROTEINOPATHIES” (Ovid Therapeutics Inc., priority 2024, published 2025)

Assays:
[1] = PK studies, brain and plasma levels by LC-MS/MS; assay type: in vivo; conditions: mice
Method: PK studies. […] Plasma and brain samples were rapidly frozen on dry ice.
Drug accumulation in the brain was examined following SC injection (FIG. 4C; 50 mg/kg).

NKCC1 = molecular target: T1, NKCC1 (Homo sapiens, UniProt P55011); experiment: TI+ flux assay, HEK-293 cells expressing NKCC1; assay type: cell-based; conditions: read-out: concentration at which effects on NKCC1 were seen (EC50 chart FIG. 1G)
T1 construct: expressed in transfected cells; host or cells: HEK-293
T1 sequence (P55011 1-1212): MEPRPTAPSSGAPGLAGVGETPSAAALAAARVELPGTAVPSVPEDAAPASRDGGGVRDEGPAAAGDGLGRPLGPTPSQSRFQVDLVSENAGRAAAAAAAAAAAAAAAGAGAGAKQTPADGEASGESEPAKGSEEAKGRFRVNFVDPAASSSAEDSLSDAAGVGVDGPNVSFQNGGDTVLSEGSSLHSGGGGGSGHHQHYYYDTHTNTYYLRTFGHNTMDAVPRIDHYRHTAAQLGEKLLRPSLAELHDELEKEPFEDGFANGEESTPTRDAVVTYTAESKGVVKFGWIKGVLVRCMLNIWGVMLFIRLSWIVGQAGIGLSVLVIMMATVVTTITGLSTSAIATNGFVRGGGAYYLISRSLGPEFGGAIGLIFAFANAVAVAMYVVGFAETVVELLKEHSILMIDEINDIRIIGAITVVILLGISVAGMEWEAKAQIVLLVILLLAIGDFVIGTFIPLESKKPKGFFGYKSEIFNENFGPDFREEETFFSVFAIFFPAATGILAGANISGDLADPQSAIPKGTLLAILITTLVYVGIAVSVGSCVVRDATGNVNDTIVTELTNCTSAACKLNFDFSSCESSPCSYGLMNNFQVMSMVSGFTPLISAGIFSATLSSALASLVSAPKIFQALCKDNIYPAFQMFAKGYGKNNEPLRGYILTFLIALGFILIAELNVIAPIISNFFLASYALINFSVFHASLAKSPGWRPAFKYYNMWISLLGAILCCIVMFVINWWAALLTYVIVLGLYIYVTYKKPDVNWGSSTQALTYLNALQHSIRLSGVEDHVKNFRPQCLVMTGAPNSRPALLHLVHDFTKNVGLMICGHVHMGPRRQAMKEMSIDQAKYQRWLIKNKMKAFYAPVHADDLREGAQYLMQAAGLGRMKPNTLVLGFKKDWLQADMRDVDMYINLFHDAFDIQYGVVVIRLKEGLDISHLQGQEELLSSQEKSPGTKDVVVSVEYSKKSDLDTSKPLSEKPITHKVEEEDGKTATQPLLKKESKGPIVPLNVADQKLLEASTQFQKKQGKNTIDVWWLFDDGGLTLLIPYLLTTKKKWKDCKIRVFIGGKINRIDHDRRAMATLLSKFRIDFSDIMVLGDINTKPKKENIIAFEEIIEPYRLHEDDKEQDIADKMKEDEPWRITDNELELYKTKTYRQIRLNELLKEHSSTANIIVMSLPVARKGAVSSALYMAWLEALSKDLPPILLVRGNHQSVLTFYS
Method: FLIPR TI Flux assay. HEK-293 cells were washed with HBSS, and then incubated with loading buffer containing TI sensitive fluorescent dye (https://www.moleculardevices.com), 20 μM bumetanide 20 μM ouabain and 2.5 mM probenecid for 1 h at room temperature (RT) under control conditions or with drugs in the dark using a FlexStation 3 microplate reader (Molecular Devices) and imaged […] for 30 min. Stimulus buffer was added containing 5 mM K^+/0.5 mM Tl^+ and cells were imaged every 1.5 over a 190 second time course The initial rate Tl^+ uptake (Relative Fluorescence Units (RFU) per second) was determined following addition of the stimulus buffer as outlined previously (Conway et al., 2017, supra) (Lee et al., 2022, supra).
Several studies have shown that the activity and plasma membrane accumulation of KCC2 is potentiated via phosphorylation of S940, a process mediated by the activity of protein kinase C and protein phosphatase 1 (Lee et al., 2011, supra; Lee et al., J Biol Chem 282, 29777-29784 (2007); Moore et al., Proc. Natl. Acad. Sci. U.S.A. 115, 10166-10171 (2018); Moore et al., Trends Neurosci. 40, 555-571 (2017); Silayeva et al., Proc. Natl. Acad. Sci. U.S.A. 112, 3523-3528 (2015)). […] Compared to KCC2, effects on KCC3, KCC4, and NKCC1 were only seen at concentrations more than 35-fold that of KCC2 (>100 μM) (FIG. 1G).

C[C@@H]1CN(c2nc3c(c(Nc4ccc(C5CCCCC5)cc4)n2)COC3)CCO1 [Compound A, (R)—N-(4-cyclohexylphenyl)-2-(2-methylmorpholino)-5,7-dihydrofuro[3,4-d]pyrimidin-4-amine]
time at which accumulation in the brain was evident ([1]; 25 mg/kg IV bolus): ≤ 30 min
brain level 8 h later ([1]; SC 50 mg/kg): maintained
time at which accumulation in the brain was detected ([1]; SC 50 mg/kg): 30 min
time of maximal concentration in the brain ([1]; SC 50 mg/kg): 4 h
EC50 (NKCC1): > 100 µM
